Data taken from PubChem BioAssay (NCI).
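48-hour exposure; five concentrations; linearly interpolated endpoints. GI50: concentration for 50% inhibition of growth. TGI denotes the concentration required for complete inhibition of growth.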

Legend:
Experiment in all cases: NCI-60 cell line screen, 48 h
[1] = system: ACHN renal
[2] = system: CAKI-1 renal
[3] = system: UACC-257 melanoma
[4] = system: NCI/ADR-RES ovarian
[5] = system: A498 renal
[6] = system: SR leukemia
[7] = system: NCI-H23 lung
[8] = system: HS 578T breast
[9] = system: SF-539 CNS
[10] = system: KM12 colon
[11] = system: OVCAR-5 ovarian
[12] = system: BT-549 breast
[13] = system: SW-620 colon
[14] = system: RPMI-8226 leukemia
[15] = system: RXF 393 renal
[16] = system: U251 CNS
[17] = system: HCC-2998 colon
[18] = system: SNB-19 CNS
[19] = system: TK-10 renal
[20] = system: SNB-75 CNS
[21] = system: SK-OV-3 ovarian
[22] = system: EKVX NSCLC
[23] = system: A549 NSCLC
[24] = system: K-562 leukemia
[25] = system: SK-MEL-5 melanoma
[26] = system: MDA-MB-231 breast
[27] = system: NCI-H522 lung
[28] = system: NCI-H460 lung
[29] = system: HOP-62 NSCLC
[30] = system: COLO 205 colon
[31] = system: OVCAR-4 ovarian
[32] = system: UO-31 renal
[33] = system: MOLT-4 leukemia
[34] = system: M14 melanoma
[35] = system: PC-3 prostate
[36] = system: SN12C renal
[37] = system: T-47D breast
[38] = system: SF-268 CNS
[39] = system: SK-MEL-28 melanoma
[40] = system: MALME-3M melanoma
[41] = system: SK-MEL-2 melanoma
[42] = system: HOP-92 NSCLC
[43] = system: UACC-62 melanoma
[44] = system: LOX IMVI melanoma
[45] = system: HCT-15 colon
[46] = system: SF-295 CNS
[47] = system: OVCAR-8 ovarian
[48] = system: DU-145 prostate
[49] = system: HT29 colon
[50] = system: IGROV1 ovarian
[51] = system: MDA-MB-435
[52] = system: NCI-H226 lung
[53] = system: HL-60(TB) leukemia
[54] = system: CCRF-CEM leukemia
[55] = system: HCT-116 colon
[56] = system: MCF7 breast
[57] = system: OVCAR-3 ovarian

Compound `COc1ccc2cnc(N)c(C#Cc3cc(C(=O)Nc4ccc(CN5CCN(C)CC5)c(C(F)(F)F)c4)cnc3C)c2c1` has a GI50 [1] of 449 nM, a TGI [1] of 3540 nM and a GI50 [2] of 1560 nM. It also gave a TGI [2] of 9250 nM, a GI50 [3] of 1200 nM and a TGI [3] of 14400 nM. It also gave a GI50 [4] of 10300 nM, a TGI [4] of over 34700 nM and a GI50 [5] of 680 nM. The TGI [5] was 3040 nM, the GI50 [6] was 707 nM and the TGI [6] was 2860 nM. For the same compound, the GI50 [7] was 1480 nM, the TGI [7] was 12500 nM and the GI50 [8] was 269 nM. The TGI [8] was 1500 nM, the GI50 [9] was 974 nM and the TGI [9] was 7910 nM. It also gave a GI50 [10] of 5 nM, a TGI [10] of 9240 nM and a GI50 [11] of 640 nM. The TGI [11] was 1730 nM, the GI50 [12] was 4220 nM and the TGI [12] was 16400 nM. For the same compound, the GI50 [13] was 692 nM, the TGI [13] was 6250 nM and the GI50 [14] was 2550 nM. The TGI [14] was 23100 nM, the GI50 [15] was 488 nM and the TGI [15] was 1280 nM. For the same compound, the GI50 [16] was 1080 nM, the TGI [16] was 2810 nM and the GI50 [17] was over 37200 nM. For the same compound, the TGI [17] was over 50000 nM, the GI50 [18] was 3710 nM and the TGI [18] was 14700 nM. It also gave a GI50 [19] of 3220 nM, a TGI [19] of 12400 nM and a GI50 [20] of 801 nM. It also gave a TGI [20] of 8900 nM, a GI50 [21] of over 21100 nM and a TGI [21] of over 50000 nM. For the same compound, the GI50 [22] was 3660 nM, the TGI [22] was 19400 nM and the GI50 [23] was 6590 nM. For the same compound, the TGI [23] was over 26900 nM, the GI50 [24] was 5 nM and the TGI [24] was 749 nM. The GI50 [25] was 1060 nM, the TGI [25] was 7900 nM and the GI50 [26] was 158 nM. It also gave a TGI [26] of 3910 nM, a GI50 [27] of 7810 nM and a TGI [27] of 32900 nM. The GI50 [28] was 1230 nM, the TGI [28] was 4460 nM and the GI50 [29] was 1190 nM. The TGI [29] was over 18800 nM, the GI50 [30] was 208 nM and the TGI [30] was over 50000 nM. The GI50 [31] was 1710 nM, the TGI [31] was 14600 nM and the GI50 [32] was 412 nM. For the same compound, the TGI [32] was 1220 nM, the GI50 [33] was 906 nM and the TGI [33] was 26800 nM. For the same compound, the GI50 [34] was 124 nM, the TGI [34] was 5350 nM and the GI50 [35] was 2690 nM. It also gave a TGI [35] of 9170 nM, a GI50 [36] of 490 nM and a TGI [36] of over 25300 nM. The GI50 [37] was over 50000 nM, the TGI [37] was over 50000 nM and the GI50 [38] was 2680 nM. The TGI [38] was over 29600 nM, the GI50 [39] was 372 nM and the TGI [39] was 1290 nM. The GI50 [40] was 70.8 nM, the TGI [40] was 1830 nM and the GI50 [41] was 3590 nM. The TGI [41] was 14600 nM, the GI50 [42] was 62.9 nM and the TGI [42] was 796 nM. For the same compound, the GI50 [43] was 190 nM, the TGI [43] was 4200 nM and the GI50 [44] was 153 nM. For the same compound, the TGI [44] was 8930 nM, the GI50 [45] was 1690 nM and the TGI [45] was 12900 nM. It also gave a GI50 [46] of 9470 nM, a TGI [46] of over 33700 nM and a GI50 [47] of 9330 nM. It also gave a TGI [47] of over 28900 nM, a GI50 [48] of 2430 nM and a TGI [48] of 10100 nM. It also gave a GI50 [49] of 112 nM, a TGI [49] of 6010 nM and a GI50 [50] of 318 nM. The TGI [50] was over 40200 nM, the GI50 [51] was 240 nM and the TGI [51] was 6990 nM. The GI50 [52] was 383 nM, the TGI [52] was 2590 nM and the GI50 [53] was 1070 nM. It also gave a TGI [53] of over 50000 nM, a GI50 [54] of 1970 nM and a TGI [54] of 13100 nM. It also gave a GI50 [55] of 498 nM, a TGI [55] of 9880 nM and a GI50 [56] of 1430 nM. It also gave a TGI [56] of 22200 nM, a GI50 [57] of 11400 nM and a TGI [57] of over 50000 nM.
